The source of these data is ChEMBL document CHEMBL1132765, “Synthesis and antibacterial activity of new carbapenems containing isoxazole moiety” (2000).

Converted amounts (≈) assume the structure as drawn.

The target of the first experiment is T1, Dipeptidase 1 (Sus scrofa) (UniProt P22412).
T1 sequence (whole entry): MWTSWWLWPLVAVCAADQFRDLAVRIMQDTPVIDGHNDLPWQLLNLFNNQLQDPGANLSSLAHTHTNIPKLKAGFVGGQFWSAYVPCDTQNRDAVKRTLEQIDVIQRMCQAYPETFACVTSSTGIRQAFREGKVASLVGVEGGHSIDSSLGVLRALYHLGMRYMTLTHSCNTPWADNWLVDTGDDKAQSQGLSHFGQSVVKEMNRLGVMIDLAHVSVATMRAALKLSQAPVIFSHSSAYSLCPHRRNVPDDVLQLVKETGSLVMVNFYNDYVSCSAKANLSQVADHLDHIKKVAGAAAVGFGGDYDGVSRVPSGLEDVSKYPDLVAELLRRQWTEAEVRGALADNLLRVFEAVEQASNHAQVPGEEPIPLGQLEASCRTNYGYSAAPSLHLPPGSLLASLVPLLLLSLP
Description: Relative t1/2 hydrolysis to meropenem by partially purified porcine renal DHP-1. Format: functional.
Settings: not given
Compound `C[C@@H](O)[C@H]1C(=O)N2C(C(=O)O)=C(S[C@@H]3CN[C@H](c4cc(CO)on4)C3)[C@H](C)[C@H]12` registered a Relative t1/2 of 0.8.

In the next experiment the test system is Enterobacter cloacae. As to the kind of experiment: In vitro antibacterial activity against Enterobacter cloacae 1321E.
Settings: not given
The class given is functional.
One may read the MIC as the smallest concentration in the dilution series that meets the test's criterion for growth inhibition. The compound `C[C@@H](O)[C@H]1C(=O)N2C(C(=O)O)=C(S[C@@H]3CN[C@H](C4CC(CO)=NO4)C3)[C@H](C)[C@H]12` (stereo in doubt; form 2) had an MIC of 0.025 µg/mL (≈ 0.0608 µM).

Staying with this experiment, now noted: Enterobacter cloacae; read-out: MIC.
Take `C[C@@H](O)[C@H]1C(=O)N2C(C(=O)O)=C(S[C@@H]3CN[C@H](C4CC(CO)=NO4)C3)[C@H](C)[C@H]12` (stereo in doubt; form 1): the MIC turned out to be 0.049 µg/mL (≈ 0.119 µM).
On the same count and under the same terms, the same measure for `C[C@@H](O)[C@H]1C(=O)N2C(C(=O)O)=C(S[C@@H]3CN[C@H](c4cc(CO)on4)C3)[C@H](C)[C@H]12`: 0.025 µg/mL (≈ 0.0611 µM).

For the next experiment, the system named is Escherichia coli. Description: In vitro antibacterial activity against Escherichia coli 078. Format: functional.
Settings: not given
Compound `C[C@@H](O)[C@H]1C(=O)N2C(C(=O)O)=C(S[C@@H]3CN[C@H](C4CC(CO)=NO4)C3)[C@H](C)[C@H]12` (stereo in doubt; form 2) gave an MIC of 0.025 µg/mL (≈ 0.0608 µM).

The experiment is the same for the next values; noted with them: Escherichia coli; read-out: MIC.
As to `C[C@@H](O)[C@H]1C(=O)N2C(C(=O)O)=C(S[C@@H]3CN[C@H](C4CC(CO)=NO4)C3)[C@H](C)[C@H]12` (stereo in doubt; form 1), the minimal inhibitory concentration (MIC) amounted to 0.049 µg/mL (≈ 0.119 µM).
Same read-out and setting: the same measure for `C[C@@H](O)[C@H]1C(=O)N2C(C(=O)O)=C(S[C@@H]3CN[C@H](c4cc(CO)on4)C3)[C@H](C)[C@H]12`: 0.025 µg/mL (≈ 0.0611 µM).

In a further experiment the test system is Escherichia coli. Description: In vitro antibacterial activity against Escherichia coli 1507E. The class given is functional.
Settings: not given
`C[C@@H](O)[C@H]1C(=O)N2C(C(=O)O)=C(S[C@@H]3CN[C@H](C4CC(CO)=NO4)C3)[C@H](C)[C@H]12` (stereo in doubt; form 2): the MIC was determined as 0.025 µg/mL (≈ 0.0608 µM).

Still in this experiment, the particulars now being: Escherichia coli; read-out: MIC.
Turning to `C[C@@H](O)[C@H]1C(=O)N2C(C(=O)O)=C(S[C@@H]3CN[C@H](C4CC(CO)=NO4)C3)[C@H](C)[C@H]12` (stereo in doubt; form 1), the MIC was 0.049 µg/mL (≈ 0.119 µM).
On the same count and under the same terms, the same measure for `C[C@@H](O)[C@H]1C(=O)N2C(C(=O)O)=C(S[C@@H]3CN[C@H](c4cc(CO)on4)C3)[C@H](C)[C@H]12`: 0.025 µg/mL (≈ 0.0611 µM).

A further experiment relates to Klebsiella aerogenes. As to the kind of experiment: In vitro antibacterial activity against Klebsiella aerogenes 1522E. Format: functional.
Settings: not given
In turn, `C[C@@H](O)[C@H]1C(=O)N2C(C(=O)O)=C(S[C@@H]3CN[C@H](C4CC(CO)=NO4)C3)[C@H](C)[C@H]12` (stereo in doubt; form 2) had an MIC of 0.049 µg/mL (≈ 0.119 µM).

Staying with this experiment, now noted: Klebsiella aerogenes; read-out: MIC.
With `C[C@@H](O)[C@H]1C(=O)N2C(C(=O)O)=C(S[C@@H]3CN[C@H](C4CC(CO)=NO4)C3)[C@H](C)[C@H]12` (stereo in doubt; form 1), the MIC is 0.098 µg/mL (≈ 0.238 µM).
For `C[C@@H](O)[C@H]1C(=O)N2C(C(=O)O)=C(S[C@@H]3CN[C@H](c4cc(CO)on4)C3)[C@H](C)[C@H]12`, the MIC was 0.049 µg/mL (≈ 0.12 µM).

The test system of a further experiment is Pseudomonas aeruginosa. Description: In vitro antibacterial activity against Pseudomonas aeruginosa 1592E. The class given is functional.
Settings: not given
Take `C[C@@H](O)[C@H]1C(=O)N2C(C(=O)O)=C(S[C@@H]3CN[C@H](C4CC(CO)=NO4)C3)[C@H](C)[C@H]12` (stereo in doubt; form 2): the MIC stood at 0.391 µg/mL (≈ 0.95 µM).

Still in this experiment, the particulars now being: Pseudomonas aeruginosa; read-out: MIC.
As for `C[C@@H](O)[C@H]1C(=O)N2C(C(=O)O)=C(S[C@@H]3CN[C@H](C4CC(CO)=NO4)C3)[C@H](C)[C@H]12` (stereo in doubt; form 1), the MIC worked out at 0.391 µg/mL (≈ 0.95 µM).
The same measure, in the same setting: the same measure for `C[C@@H](O)[C@H]1C(=O)N2C(C(=O)O)=C(S[C@@H]3CN[C@H](c4cc(CO)on4)C3)[C@H](C)[C@H]12`: 1.56 µg/mL (≈ 3.82 µM).

For another experiment, the system named is Pseudomonas aeruginosa. Description: In vitro antibacterial activity against Pseudomonas aeruginosa 1771M. Format: functional.
Settings: not given
In turn, `C[C@@H](O)[C@H]1C(=O)N2C(C(=O)O)=C(S[C@@H]3CN[C@H](C4CC(CO)=NO4)C3)[C@H](C)[C@H]12` (stereo in doubt; form 2) registered an MIC of 0.195 µg/mL (≈ 0.474 µM).

The experiment is the same for the next values; noted with them: Pseudomonas aeruginosa; read-out: MIC.
As for `C[C@@H](O)[C@H]1C(=O)N2C(C(=O)O)=C(S[C@@H]3CN[C@H](C4CC(CO)=NO4)C3)[C@H](C)[C@H]12` (stereo in doubt; form 1), the minimal inhibitory concentration (MIC) turned out to be 0.098 µg/mL (≈ 0.238 µM).
Same read-out and setting: the same measure for `C[C@@H](O)[C@H]1C(=O)N2C(C(=O)O)=C(S[C@@H]3CN[C@H](c4cc(CO)on4)C3)[C@H](C)[C@H]12`: 0.391 µg/mL (≈ 0.955 µM).

In the next experiment the test system is Pseudomonas aeruginosa. Description: In vitro antibacterial activity against Pseudomonas aeruginosa 9027. Format: functional.
Settings: not given
On to `C[C@@H](O)[C@H]1C(=O)N2C(C(=O)O)=C(S[C@@H]3CN[C@H](C4CC(CO)=NO4)C3)[C@H](C)[C@H]12` (stereo in doubt; form 2), for which the MIC came out at 0.391 µg/mL (≈ 0.95 µM).
Same read-out and setting: the same measure for `C[C@@H](O)[C@H]1C(=O)N2C(C(=O)O)=C(S[C@@H]3CN[C@H](c4cc(CO)on4)C3)[C@H](C)[C@H]12`: 1.56 µg/mL (≈ 3.82 µM).

Staying with this experiment, now noted: Pseudomonas aeruginosa; read-out: MIC.
For `C[C@@H](O)[C@H]1C(=O)N2C(C(=O)O)=C(S[C@@H]3CN[C@H](C4CC(CO)=NO4)C3)[C@H](C)[C@H]12` (stereo in doubt; form 1), the minimal inhibitory concentration (MIC) came out at 0.391 µg/mL (≈ 0.95 µM).

Another experiment concerns Salmonella typhimurium. Description: In vitro antibacterial activity against Salmonella Typhimurium. Format: functional, Salmonella enterica subsp. enterica serovar Typhimurium.
Settings: not given
As to `C[C@@H](O)[C@H]1C(=O)N2C(C(=O)O)=C(S[C@@H]3CN[C@H](C4CC(CO)=NO4)C3)[C@H](C)[C@H]12` (stereo in doubt; form 2), the MIC amounted to 0.049 µg/mL (≈ 0.119 µM).

Staying with this experiment, now noted: Salmonella enterica; read-out: MIC.
With `C[C@@H](O)[C@H]1C(=O)N2C(C(=O)O)=C(S[C@@H]3CN[C@H](C4CC(CO)=NO4)C3)[C@H](C)[C@H]12` (stereo in doubt; form 1), the MIC worked out at 0.098 µg/mL (≈ 0.238 µM).
On the same count and under the same terms, the same measure for `C[C@@H](O)[C@H]1C(=O)N2C(C(=O)O)=C(S[C@@H]3CN[C@H](c4cc(CO)on4)C3)[C@H](C)[C@H]12`: 0.049 µg/mL (≈ 0.12 µM).

In a further experiment the test system is Staphylococcus aureus. As to the kind of experiment: In vitro antibacterial activity against Staphylococcus aureus 285. Format: functional.
Settings: not given
In the case of `C[C@@H](O)[C@H]1C(=O)N2C(C(=O)O)=C(S[C@@H]3CN[C@H](C4CC(CO)=NO4)C3)[C@H](C)[C@H]12` (stereo in doubt; form 2), the MIC was found to be 0.098 µg/mL (≈ 0.238 µM).

Staying with this experiment, now noted: Staphylococcus aureus; read-out: MIC.
`C[C@@H](O)[C@H]1C(=O)N2C(C(=O)O)=C(S[C@@H]3CN[C@H](C4CC(CO)=NO4)C3)[C@H](C)[C@H]12` (stereo in doubt; form 1): the MIC worked out at 0.098 µg/mL (≈ 0.238 µM).
Same read-out and setting: the same measure for `C[C@@H](O)[C@H]1C(=O)N2C(C(=O)O)=C(S[C@@H]3CN[C@H](c4cc(CO)on4)C3)[C@H](C)[C@H]12`: 0.098 µg/mL (≈ 0.239 µM).

The test system of another experiment is Staphylococcus aureus. As to the kind of experiment: In vitro antibacterial activity against Staphylococcus aureus 503. The class given is functional.
Settings: not given
The compound `C[C@@H](O)[C@H]1C(=O)N2C(C(=O)O)=C(S[C@@H]3CN[C@H](C4CC(CO)=NO4)C3)[C@H](C)[C@H]12` (stereo in doubt; form 2) registered an MIC of 0.049 µg/mL (≈ 0.119 µM).

The same experiment, now with this note: Staphylococcus aureus; read-out: MIC.
With `C[C@@H](O)[C@H]1C(=O)N2C(C(=O)O)=C(S[C@@H]3CN[C@H](C4CC(CO)=NO4)C3)[C@H](C)[C@H]12` (stereo in doubt; form 1), the MIC was found to be 0.049 µg/mL (≈ 0.119 µM).
Same read-out and setting: the same measure for `C[C@@H](O)[C@H]1C(=O)N2C(C(=O)O)=C(S[C@@H]3CN[C@H](c4cc(CO)on4)C3)[C@H](C)[C@H]12`: 0.049 µg/mL (≈ 0.12 µM).

A further experiment has as its system Staphylococcus aureus. As to the kind of experiment: In vitro antibacterial activity against Staphylococcus aureus SG511.
Settings: not given
Format: functional.
Regarding `C[C@@H](O)[C@H]1C(=O)N2C(C(=O)O)=C(S[C@@H]3CN[C@H](C4CC(CO)=NO4)C3)[C@H](C)[C@H]12` (stereo in doubt; form 2), the MIC came out at 0.098 µg/mL (≈ 0.238 µM).

The experiment is the same for the next values; noted with them: Staphylococcus aureus; read-out: MIC.
Take `C[C@@H](O)[C@H]1C(=O)N2C(C(=O)O)=C(S[C@@H]3CN[C@H](C4CC(CO)=NO4)C3)[C@H](C)[C@H]12` (stereo in doubt; form 1): the MIC is 0.098 µg/mL (≈ 0.238 µM).
Still for that read-out and setting: the same measure for `C[C@@H](O)[C@H]1C(=O)N2C(C(=O)O)=C(S[C@@H]3CN[C@H](c4cc(CO)on4)C3)[C@H](C)[C@H]12`: 0.098 µg/mL (≈ 0.239 µM).

A further experiment has as its system Streptococcus pyogenes. Description: In vitro antibacterial activity against Streptococcus pyogenes 308A. Format: functional.
Settings: not given
Consider `C[C@@H](O)[C@H]1C(=O)N2C(C(=O)O)=C(S[C@@H]3CN[C@H](C4CC(CO)=NO4)C3)[C@H](C)[C@H]12` (stereo in doubt; form 2), for which the MIC is 0.013 µg/mL (≈ 0.0316 µM).

The same experiment, now with this note: Streptococcus pyogenes; read-out: MIC.
Consider `C[C@@H](O)[C@H]1C(=O)N2C(C(=O)O)=C(S[C@@H]3CN[C@H](C4CC(CO)=NO4)C3)[C@H](C)[C@H]12` (stereo in doubt; form 1), for which the minimum inhibitory concentration (MIC) turned out to be 0.013 µg/mL (≈ 0.0316 µM).
Still for that read-out and setting: the same measure for `C[C@@H](O)[C@H]1C(=O)N2C(C(=O)O)=C(S[C@@H]3CN[C@H](c4cc(CO)on4)C3)[C@H](C)[C@H]12`: 0.013 µg/mL (≈ 0.0317 µM).
